From the Kinase Knowledgebase extract (Sharma et al. 2016)
pIC50: −log10 of the molar value.

Target: PIK3CA (human) (UniProt P42336)
Test: Assessment of PIK3CA Kinase Activity

Sequence of PIK3CA (human) (P42336 whole entry, looked up): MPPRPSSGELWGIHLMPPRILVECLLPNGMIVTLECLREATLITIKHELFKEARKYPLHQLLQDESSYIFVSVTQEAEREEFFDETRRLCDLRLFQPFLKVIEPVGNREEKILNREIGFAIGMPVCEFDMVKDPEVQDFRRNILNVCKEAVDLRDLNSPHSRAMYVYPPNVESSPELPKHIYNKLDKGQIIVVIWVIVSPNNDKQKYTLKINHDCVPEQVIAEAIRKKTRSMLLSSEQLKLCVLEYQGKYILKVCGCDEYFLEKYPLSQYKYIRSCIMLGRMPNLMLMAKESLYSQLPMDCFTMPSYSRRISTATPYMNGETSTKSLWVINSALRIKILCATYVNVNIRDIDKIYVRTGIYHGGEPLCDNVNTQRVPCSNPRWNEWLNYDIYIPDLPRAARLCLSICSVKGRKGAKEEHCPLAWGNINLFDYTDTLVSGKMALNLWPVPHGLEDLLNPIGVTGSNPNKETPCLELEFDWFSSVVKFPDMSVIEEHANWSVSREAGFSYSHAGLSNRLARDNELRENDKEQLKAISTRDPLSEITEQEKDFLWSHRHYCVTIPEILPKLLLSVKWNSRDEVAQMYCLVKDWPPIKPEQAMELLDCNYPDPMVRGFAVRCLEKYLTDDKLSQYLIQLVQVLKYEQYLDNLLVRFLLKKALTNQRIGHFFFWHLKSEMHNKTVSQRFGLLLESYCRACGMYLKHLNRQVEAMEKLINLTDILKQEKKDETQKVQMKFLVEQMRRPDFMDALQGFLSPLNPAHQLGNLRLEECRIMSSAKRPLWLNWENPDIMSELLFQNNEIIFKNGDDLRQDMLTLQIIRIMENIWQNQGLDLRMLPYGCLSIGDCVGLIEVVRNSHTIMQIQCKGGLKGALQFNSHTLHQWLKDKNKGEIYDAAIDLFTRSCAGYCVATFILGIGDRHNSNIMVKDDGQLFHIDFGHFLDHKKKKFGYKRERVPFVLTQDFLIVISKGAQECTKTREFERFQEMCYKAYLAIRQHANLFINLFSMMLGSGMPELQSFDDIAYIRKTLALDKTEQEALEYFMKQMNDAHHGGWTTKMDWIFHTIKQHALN

pIC50, > 6.00:
CC(C)n1ncnc1-c1cc2c(s1)-c1ccc(-c3cnn(CCO)c3)cc1OCC2
CC(C)n1ncnc1-c1nc2c(s1)CCOc1ccc(C3CN(CC(N)=O)C3)cc1-2
CC1(C)C(=O)N(CCN)C(=O)N1c1nc2c(s1)CCOc1ccccc1-2
COCCOc1ncccc1-c1ccc2c(c1)-c1nc(-c3ncnn3C(C)C)sc1CCO2
CC(C)(O)Cn1cc(-c2ccc3c(c2)OCCc2sc(C(=O)N(CCO)C4CCOCC4)nc2-3)cn1
Fc1ccc(-n2ncnc2-c2cc3c(s2)-c2nc(NCCN4CCOCC4)ccc2OCC3)c(F)c1
CC(=O)N1CCC(Nc2ccc3c(n2)-c2sc(-c4ncnn4-c4ccc(F)cc4F)cc2CCO3)CC1
CC(C)(O)Cn1cc(-c2ccc3c(c2)OCCc2sc(NC(C)(C)CO)nc2-3)cn1
CC(C)n1ncnc1-c1nc2c(s1)CCOc1ccc(C3CN(CC(C)(C)O)C3)cc1-2
CC(=O)N1CCN(C(=O)c2nc3c(s2)CCOc2cc(-c4cn[nH]c4)ccc2-3)CC1
CC(C)N(CCO)C(=O)c1nc2c(s1)CCOc1ccc(-c3ccc(N)nc3)cc1-2
C[C@@H]1CN(c2ccc3c(n2)-c2sc(-c4ncnn4-c4ccc(F)cc4F)cc2CCO3)C[C@H](C)N1C(=O)C(F)(F)F
CN(C)C(=O)Cn1cc(-c2ccc3c(c2)OCCc2sc(-c4ncnn4CC(F)(F)F)nc2-3)cn1
CN(C)S(=O)(=O)N1CCN(C(=O)c2nc3c(s2)CCOc2cc(-c4cn[nH]c4)ccc2-3)CC1
CS(=O)(=O)CCNc1ccc(-c2ccc3c(n2)-c2sc(-c4ncnn4-c4ccc(F)cc4F)cc2CCO3)cn1
CC(C)n1ncnc1-c1nc2c(s1)CCOc1ccc(C3CN(C(=O)OC(C)(C)C)C3)cc1-2
CC(C)n1ncnc1-c1nc2c(s1)CCOc1cc(O[C@@H](C)C(N)=O)ccc1-2
CC(C)C[C@@H](CO)NC(=O)c1nc2c(s1)CCOc1cc(-c3cn[nH]c3)ccc1-2
OCCCCc1ccc2c(n1)-c1sc(-c3ncnn3-c3ccc(F)cc3F)cc1CCO2
O=C(NCCO)c1ccc2c(c1)OCCc1sc(-c3ncnn3CC(F)(F)F)nc1-2
CC(C)N1CC[C@H](CN(C)C(=O)c2nc3c(s2)CCOc2cc(-c4cn[nH]c4)ccc2-3)C1
CC(C)Oc1ncccc1-c1ccc2c(c1)-c1nc(-c3ncnn3C(C)C)sc1CCO2
CC(C)(O)Cn1cc(-c2ccc3c(c2)OCCc2sc(-c4nccn4C4COC4)nc2-3)cn1
COc1ccncc1-c1ccc2c(c1)-c1nc(-c3ncnn3C(C)C)sc1CCO2
O=C1CN(c2ccc3c(n2)-c2sc(-c4ncnn4-c4ccc(F)cc4F)cc2CCO3)CCN1
CN1CCN(C(=O)c2ccc(Cl)c(N(C)C(=O)c3cc4c(s3)-c3ccc(C(=O)NCCS(C)(=O)=O)cc3OCC4)c2)CC1
Cc1ccc(-c2ccc3c(n2)-c2sc(-c4ncnn4-c4ccc(F)cc4F)cc2CCO3)cn1
Cc1nc(-c2nc3c(s2)CCOc2cc(C4CN(CCCO)C4)ccc2-3)n(C(C)C)n1
CC(C)(O)Cn1cc(-c2ccc3c(c2)OCCc2sc(-c4ncnn4CCO)nc2-3)cn1
CCn1ccc(-c2ccc3c(c2)OCCc2sc(-c4ncnn4C(C)C)nc2-3)cc1=O
CN(CCO)C(=O)c1nc2c(s1)CCOc1cc(-c3cn[nH]c3)ccc1-2
Fc1ccc(-n2ncnc2-c2cc3c(s2)-c2nc(N4CCN(CC(F)(F)F)CC4)ccc2OCC3)c(F)c1
CC(C)n1nc(N)nc1-c1nc2c(s1)CCOc1cc(F)ccc1-2
CC(C)n1ncnc1-c1nc2c(s1)CCOc1ccc(-c3cccn(CC(N)=O)c3=O)cc1-2
CC(C)N1CCN(c2ccc3c(n2)-c2sc(-c4ncnn4-c4ccc(F)cc4F)cc2CCO3)CC1
COCCn1cc(-c2ccc3c(c2)OCCc2sc(-c4ncnn4C(C)C)nc2-3)ccc1=O
CC(C)N(CCO)C(=O)c1nc2c(s1)CCOc1ccc(-c3cnc(N)nc3)cc1-2
CC(C)n1ncnc1-c1nc2c(s1)CCOc1ccc(-c3ccn(C(C)C)c(=O)c3)cc1-2
OC1CCN(c2ccc3c(n2)-c2sc(-c4ncnn4-c4ccc(F)cc4F)cc2CCO3)CC1
CC(C)(C)n1nc(N)nc1-c1nc2c(s1)CCOc1cc(-c3cn[nH]c3)ccc1-2
CC(C)n1ncnc1-c1nc2c(s1)CCOc1cc(C3CN(S(=O)(=O)C(C)C)C3)ccc1-2
OCCNc1ccc2c(n1)-c1sc(-c3ncnn3-c3ccc(F)cc3F)cc1CCO2
CC(C)n1ncnc1-c1nc2c(s1)CCOc1cc(C3CCN(CC(=O)NC(C)(C)C)CC3)ccc1-2
O=C(c1nc2c(s1)CCOc1cc(-c3cn[nH]c3)ccc1-2)N(CCO)C1CCCC1
CC(C)n1cnnc1-c1nc2c(s1)CCOc1cc(CNCC(N)=O)ccc1-2
CC(C)n1ncnc1-c1nc2c(s1)CCOc1ccc(-c3cccn(CCN4CCOCC4)c3=O)cc1-2
Fc1ccc(-n2ncnc2-c2cc3c(s2)-c2nc(NC4CNC4)ccc2OCC3)c(F)c1
Cc1nc(-c2nc3c(s2)CCOc2cc(-c4cn(CCO)cn4)ccc2-3)n(C(C)C)n1
O=C(c1nc2c(s1)CCOc1cc(-c3cn[nH]c3)ccc1-2)N1CC[C@@H](N2CCOCC2)C1
O=C(c1nc2c(s1)CCOc1cc(-c3cn[nH]c3)ccc1-2)N1CCC[C@@H]1Cc1ccccn1
O=C(c1nc2c(s1)CCOc1cc(-c3cn[nH]c3)ccc1-2)N1CC[C@@H](C(F)(F)F)C1
CC(C)n1ccnc1-c1nc2c(s1)CCOc1cc(-c3cnn(CCO)c3)ccc1-2
CC(CO)n1ncnc1-c1nc2c(s1)CCOc1cc(-c3cnn(CC(C)(C)O)c3)ccc1-2 (stereo not drawn)
CC(C)n1ncnc1-c1nc2c(s1)CCOc1cc(C3CN(CCS(=O)(=O)N(C)C)C3)ccc1-2
CC(C)(O)Cn1cc(-c2ccc3c(c2)OCCc2sc(-c4nccn4C4CNC4)nc2-3)cn1
O=C(c1nc2c(s1)CCOc1cc(-c3cn[nH]c3)ccc1-2)N1CCC(O)CC1
NCCn1cc(-c2ccc3c(c2)OCCc2sc(-c4ncnn4CC(F)(F)F)nc2-3)cn1
CC(C)n1ncnc1-c1nc2c(s1)CCOc1ccc(C(=O)NCCO)cc1-2
CC(C)n1ncnc1-c1nc2c(s1)CCOc1cc(C3CN(CC(F)(F)F)C3)ccc1-2
CC(C)(O)Cn1cc(-c2ccc3c(c2)OCCc2sc(-c4nccn4CC(F)(F)F)nc2-3)cn1
CC(C)n1ncnc1-c1nc2c(s1)CCOc1cc(-c3cnc(CO)n3C)ccc1-2
CC(C)n1ncnc1-c1nc2c(s1)CCOc1ccc(C3CCN(C(=O)[C@@H](C)O)CC3)cc1-2
FC(F)(F)Cn1ncnc1-c1nc2c(s1)CCOc1cc(-c3cnn(CCNC4COC4)c3)ccc1-2
CN(C)C(=O)CNc1ccc2c(n1)-c1sc(-c3ncnn3-c3ccc(F)cc3F)cc1CCO2
O=C(c1nc2c(s1)CCOc1cc(-c3cn[nH]c3)ccc1-2)N1CC[C@@H](O)C1
CN(C)CCCc1ccc2c(n1)-c1sc(-c3ncnn3-c3ccc(F)cc3F)cc1CCO2
CC(=O)N1CC(N(C(C)=O)c2ccc3c(n2)-c2sc(-c4ncnn4-c4ccc(F)cc4F)cc2CCO3)C1
O=C(c1nc2c(s1)CCOc1cc(-c3cn[nH]c3)ccc1-2)N1CCN(c2cccnc2)CC1
CNS(=O)(=O)CCN1CC(c2ccc3c(c2)OCCc2sc(-c4ncnn4C(C)C)nc2-3)C1
Cc1noc(C)c1-c1ccc2c(c1)OCCc1sc(C(=O)N(CCO)C(C)C)nc1-2
CC(=O)N1CC(Nc2ccc3c(n2)-c2sc(-c4ncnn4-c4ccc(F)cc4F)cc2CCO3)C1
COCCNc1ccc2c(n1)-c1sc(-c3ncnn3-c3ccc(F)cc3F)cc1CCO2
CNC(=O)c1ccc2c(c1)OCCc1cc(C(=O)N(C)c3cc(C(=O)NCCO)ccc3Cl)sc1-2
Fc1ccc(-n2ncnc2-c2cc3c(s2)-c2nc(NCCc4ccccc4)ccc2OCC3)c(F)c1
CC(C)C(=O)N1CCN(C(=O)c2nc3c(s2)CCOc2cc(-c4cn[nH]c4)ccc2-3)CC1
CC(C)n1ncnc1-c1nc2c(s1)CCOc1cc(C3CN(C(=O)[C@H](C)O)C3)ccc1-2
C[C@@H]1CCN(C(=O)c2nc3c(s2)CCOc2cc(-c4cn[nH]c4)ccc2-3)C1
CCN(CC)C(=O)c1nc2c(s1)CCOc1cc(-c3cn[nH]c3)ccc1-2
CNC(=O)c1ccc2c(c1)OCCc1cc(C(=O)N(C)c3cc(C(=O)NC[C@@H](C)O)ccc3Cl)sc1-2
O=C(c1nc2c(s1)CCOc1cc(-c3cn[nH]c3)ccc1-2)N1CCN(CCO)CC1
Nc1ccc2c(n1)-c1sc(-c3ncnn3-c3ccc(F)cc3F)cc1CCO2
CC(C)n1ncnc1-c1nc2c(s1)CCOc1ccc(C3CN(Cc4ccccc4Cl)C3)cc1-2
CC(C)n1cnnc1-c1nc2c(s1)CCOc1cc(C(=O)Nc3ccon3)ccc1-2
